Test results published in ChEMBL document CHEMBL4007467, “Effects of 6-paradol, an unsaturated ketone from gingers, on cytochrome P450-mediated drug metabolism” (Bioorg Med Chem Lett, 2017).
pIC50: −log10 of the molar value.

What was measured:
Assay type in all cases: ADME
CYP1A2 = target: T1, CYP1A2 (Homo sapiens, UniProt P05177); experiment: Inhibition of CYP1A2 in human liver microsomes assessed as enzyme-mediated metabolite formation at 0.1 uM using phenacetin as substrate incubated for 5 mins followed by NADPH addition measured after 30 mins by LC-MS/MS analysis relative to control; set-up: scale not given: the % may be the effect or the level left; conditions: probe phenacetin, read-out: Activity
T1 sequence (P05177 whole entry): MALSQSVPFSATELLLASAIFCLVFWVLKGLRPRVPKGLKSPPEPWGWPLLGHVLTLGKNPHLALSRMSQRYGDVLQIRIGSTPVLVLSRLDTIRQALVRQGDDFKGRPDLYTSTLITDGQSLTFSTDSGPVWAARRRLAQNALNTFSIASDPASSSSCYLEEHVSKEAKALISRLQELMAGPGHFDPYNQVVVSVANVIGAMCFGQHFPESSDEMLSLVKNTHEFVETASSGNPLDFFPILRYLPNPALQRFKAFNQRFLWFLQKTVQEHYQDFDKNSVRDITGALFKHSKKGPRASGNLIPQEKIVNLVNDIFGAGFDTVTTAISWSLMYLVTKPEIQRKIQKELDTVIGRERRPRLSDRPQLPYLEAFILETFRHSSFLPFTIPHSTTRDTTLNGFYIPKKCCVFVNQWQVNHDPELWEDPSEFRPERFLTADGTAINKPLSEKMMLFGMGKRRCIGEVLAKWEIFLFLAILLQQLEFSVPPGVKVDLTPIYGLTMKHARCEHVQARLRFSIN

CYP2A6 [1] = target: T2, CYP2A6 (Homo sapiens, UniProt P11509); experiment: Inhibition of CYP2A6 in human liver microsomes assessed as enzyme-mediated metabolite formation at 0.3 uM using coumarin as substrate incubated for 5 mins followed by NADPH addition measured after 30 mins by LC-MS/MS analysis relative to control; set-up: scale not given: the % may be the effect or the level left; conditions: probe coumarin, read-out: Activity
T2 sequence (P11509 whole entry): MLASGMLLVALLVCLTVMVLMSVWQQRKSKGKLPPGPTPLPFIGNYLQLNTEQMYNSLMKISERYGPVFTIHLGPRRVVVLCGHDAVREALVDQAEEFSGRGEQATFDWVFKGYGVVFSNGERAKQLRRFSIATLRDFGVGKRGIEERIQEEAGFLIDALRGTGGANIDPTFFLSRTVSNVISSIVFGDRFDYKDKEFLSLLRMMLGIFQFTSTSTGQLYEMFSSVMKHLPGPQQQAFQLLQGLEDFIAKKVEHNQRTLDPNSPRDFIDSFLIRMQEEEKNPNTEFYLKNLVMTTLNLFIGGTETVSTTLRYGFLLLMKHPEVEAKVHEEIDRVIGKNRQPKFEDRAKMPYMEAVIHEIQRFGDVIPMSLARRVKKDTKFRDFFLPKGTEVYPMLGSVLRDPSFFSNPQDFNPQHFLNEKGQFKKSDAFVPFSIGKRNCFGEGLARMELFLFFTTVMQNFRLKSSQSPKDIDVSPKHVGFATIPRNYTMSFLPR

CYP2A6 [2] = target: T2, CYP2A6; experiment: Inhibition of CYP2A6 in human liver microsomes assessed as enzyme-mediated metabolite formation at 30 uM using coumarin as substrate incubated for 5 mins followed by NADPH addition measured after 30 mins by LC-MS/MS analysis relative to control; set-up: scale not given: the % may be the effect or the level left; conditions: probe coumarin, read-out: Activity
CYP2C9 = CYP2C9 (Homo sapiens, UniProt P11712); experiment: Inhibition of CYP2C9 in human liver microsomes assessed as enzyme-mediated metabolite formation at 10 uM using diclofenac as substrate incubated for 5 mins followed by NADPH addition measured after 30 mins by LC-MS/MS analysis relative to control; set-up: scale not given: the % may be the effect or the level left; conditions: probe diclofenac, read-out: Activity
Chain of CYP2C9 (P11712 whole entry): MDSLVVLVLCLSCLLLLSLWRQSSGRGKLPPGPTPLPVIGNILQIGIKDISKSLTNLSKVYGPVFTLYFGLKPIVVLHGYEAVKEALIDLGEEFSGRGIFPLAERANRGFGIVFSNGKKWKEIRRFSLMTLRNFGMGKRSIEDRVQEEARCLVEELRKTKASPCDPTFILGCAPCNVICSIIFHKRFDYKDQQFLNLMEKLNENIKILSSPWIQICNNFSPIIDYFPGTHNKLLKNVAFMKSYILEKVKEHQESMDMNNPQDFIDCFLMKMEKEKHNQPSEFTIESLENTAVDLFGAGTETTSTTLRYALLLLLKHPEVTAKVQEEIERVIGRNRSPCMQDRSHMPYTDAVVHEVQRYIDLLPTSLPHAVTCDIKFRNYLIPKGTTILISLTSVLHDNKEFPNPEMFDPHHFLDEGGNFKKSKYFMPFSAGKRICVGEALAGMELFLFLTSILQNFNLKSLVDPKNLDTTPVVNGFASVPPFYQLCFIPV

CYP2C19 [3] = target: T3, CYP2C19 (Homo sapiens, UniProt P33261); experiment: Inhibition of CYP2C19 in human liver microsomes assessed as enzyme-mediated metabolite formation at 0.3 uM using (S)-mephenytoin as substrate incubated for 5 mins followed by NADPH addition measured after 30 mins by LC-MS/MS analysis relative to control; set-up: scale not given: the % may be the effect or the level left; conditions: probe (S)-mephenytoin, read-out: Activity
T3 sequence (P33261 whole entry): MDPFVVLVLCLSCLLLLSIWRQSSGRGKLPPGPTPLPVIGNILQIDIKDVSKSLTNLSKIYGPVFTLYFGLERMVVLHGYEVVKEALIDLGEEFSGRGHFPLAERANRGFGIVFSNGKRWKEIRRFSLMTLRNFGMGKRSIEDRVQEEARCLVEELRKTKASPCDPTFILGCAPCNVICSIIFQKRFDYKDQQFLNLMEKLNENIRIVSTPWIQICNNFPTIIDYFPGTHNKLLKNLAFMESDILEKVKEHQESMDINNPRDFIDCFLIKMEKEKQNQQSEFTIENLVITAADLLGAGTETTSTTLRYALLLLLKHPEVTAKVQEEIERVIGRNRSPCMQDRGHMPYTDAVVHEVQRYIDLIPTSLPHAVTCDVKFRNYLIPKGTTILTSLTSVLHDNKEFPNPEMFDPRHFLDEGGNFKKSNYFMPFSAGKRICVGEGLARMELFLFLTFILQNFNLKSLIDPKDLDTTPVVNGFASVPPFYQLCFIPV

CYP2C19 [4] = target: T3, CYP2C19; experiment: Inhibition of CYP2C19 in human liver microsomes assessed as enzyme-mediated metabolite formation at 1 uM using (S)-mephenytoin as substrate incubated for 5 mins followed by NADPH addition measured after 30 mins by LC-MS/MS analysis relative to control; set-up: scale not given: the % may be the effect or the level left; conditions: probe (S)-mephenytoin, read-out: Activity
CYP2C19 [5] = target: T3, CYP2C19; experiment: Inhibition of CYP2C19 in human liver microsomes assessed as enzyme-mediated metabolite formation at 3 uM using (S)-mephenytoin as substrate incubated for 5 mins followed by NADPH addition measured after 30 mins by LC-MS/MS analysis relative to control; set-up: scale not given: the % may be the effect or the level left; conditions: probe (S)-mephenytoin, read-out: Activity
Cytochrome P450 2C19 = Cytochrome P450 2C19 (Homo sapiens, UniProt P33261); experiment: Inhibition of CYP2C19 in human liver microsomes assessed as enzyme-mediated metabolite formation using (S)-mephenytoin as substrate incubated for 5 mins followed by NADPH addition measured after 30 mins by LC-MS/MS analysis
Chain of Cytochrome P450 2C19 (P33261 whole entry): as above

CYP2D6 [6] = target: T4, CYP2D6 (Homo sapiens, UniProt P10635); experiment: Inhibition of CYP2D6 in human liver microsomes assessed as enzyme-mediated metabolite formation at 10 uM using dextromethorphan as substrate incubated for 5 mins followed by NADPH addition measured after 30 mins by LC-MS/MS analysis relative to control; set-up: scale not given: the % may be the effect or the level left; conditions: probe dextromethorphan, read-out: Activity
T4 sequence (P10635 whole entry): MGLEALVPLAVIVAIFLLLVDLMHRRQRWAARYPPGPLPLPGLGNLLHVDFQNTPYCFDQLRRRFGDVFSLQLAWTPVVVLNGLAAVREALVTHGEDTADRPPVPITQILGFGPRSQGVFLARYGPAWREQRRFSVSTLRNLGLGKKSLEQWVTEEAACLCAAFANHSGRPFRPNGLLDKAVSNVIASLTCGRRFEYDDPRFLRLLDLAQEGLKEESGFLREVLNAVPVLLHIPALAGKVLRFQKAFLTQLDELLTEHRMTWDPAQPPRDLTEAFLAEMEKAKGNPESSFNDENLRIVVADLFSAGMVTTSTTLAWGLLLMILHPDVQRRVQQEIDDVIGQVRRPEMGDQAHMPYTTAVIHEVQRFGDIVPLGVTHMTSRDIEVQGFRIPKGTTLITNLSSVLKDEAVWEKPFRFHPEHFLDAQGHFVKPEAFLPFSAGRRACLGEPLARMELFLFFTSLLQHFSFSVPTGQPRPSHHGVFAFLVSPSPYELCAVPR

CYP2D6 [7] = target: T4, CYP2D6; experiment: Inhibition of CYP2D6 in human liver microsomes assessed as enzyme-mediated metabolite formation at 30 uM using dextromethorphan as substrate incubated for 5 mins followed by NADPH addition measured after 30 mins by LC-MS/MS analysis relative to control; set-up: scale not given: the % may be the effect or the level left; conditions: probe dextromethorphan, read-out: Activity
CYP3A4 [8] = target: T5, CYP3A4 (Homo sapiens, UniProt P08684); experiment: Inhibition of CYP3A4 in human liver microsomes assessed as enzyme-mediated metabolite formation at 10 uM using midazolam as substrate incubated for 5 mins followed by NADPH addition measured after 30 mins by LC-MS/MS analysis relative to control; set-up: scale not given: the % may be the effect or the level left; conditions: probe midazolam, read-out: Activity
T5 sequence (P08684 whole entry): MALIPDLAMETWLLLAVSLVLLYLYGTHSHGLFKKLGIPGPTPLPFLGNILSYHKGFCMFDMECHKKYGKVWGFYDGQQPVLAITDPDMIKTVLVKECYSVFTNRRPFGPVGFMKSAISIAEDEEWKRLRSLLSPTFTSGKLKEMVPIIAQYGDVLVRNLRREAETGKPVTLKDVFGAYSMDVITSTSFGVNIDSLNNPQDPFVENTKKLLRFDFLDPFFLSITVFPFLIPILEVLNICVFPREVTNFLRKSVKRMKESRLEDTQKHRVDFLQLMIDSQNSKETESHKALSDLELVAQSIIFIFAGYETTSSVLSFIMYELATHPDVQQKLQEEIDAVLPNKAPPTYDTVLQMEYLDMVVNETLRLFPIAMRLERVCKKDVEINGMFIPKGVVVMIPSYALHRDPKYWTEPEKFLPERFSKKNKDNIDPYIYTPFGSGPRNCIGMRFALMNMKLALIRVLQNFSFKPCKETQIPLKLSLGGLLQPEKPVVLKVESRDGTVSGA

CYP2A6 [9] = target: T2, CYP2A6; experiment: Inhibition of CYP2A6 in human liver microsomes assessed as enzyme-mediated metabolite formation at 10 uM using coumarin as substrate preincubated for 20 mins followed by substrate addition measured after 30 mins in presence of NADPH by LC-MS/MS analysis relative to control; set-up: scale not given: the % may be the effect or the level left; conditions: probe coumarin, read-out: Activity
CYP3A4 [10] = target: T5, CYP3A4; experiment: Inhibition of CYP3A4 in human liver microsomes assessed as enzyme-mediated metabolite formation at 0.1 uM using midazolam as substrate preincubated for 20 mins followed by substrate addition measured after 30 mins in presence of NADPH by LC-MS/MS analysis relative to control; set-up: scale not given: the % may be the effect or the level left; conditions: probe midazolam, read-out: Activity

activity at 0.5 h, 0.1 µM (CYP1A2): 100%
activity at 0.5 h, 0.3 µM (CYP2A6 [1]): 83.8%
activity at 0.5 h, 30 µM (CYP2A6 [2]): 77.4%
activity at 0.5 h, 10 µM (CYP2C9): 52.3%
activity at 0.5 h, 0.3 µM (CYP2C19 [3]): 85.8%
activity at 0.5 h, 1 µM (CYP2C19 [4]): 88.4%
activity at 0.5 h, 3 µM (CYP2C19 [5]): 78.6%
pIC50 (Cytochrome P450 2C19): 4.75
activity at 0.5 h, 10 µM (CYP2D6 [6]): 60.4%
activity at 0.5 h, 30 µM (CYP2D6 [7]): 53.8%
activity at 0.5 h, 10 µM (CYP3A4 [8]): 71%
activity at 0.5 h, 10 µM (CYP2A6 [9]): 96.1%
activity at 0.5 h, 0.1 µM (CYP3A4 [10]): 96.3%
Compound: CCCCCCCC(=O)CCc1ccc(O)c(OC)c1
